In patent publication US12509451B2, “Heteroaryl amide inhibitors of CD38” (NAPA THERAPEUTICS LTD., priority 2020, dated 2025):

How the values were obtained:
[1] = target: T1, recombinant human CD38 Protein (Homo sapiens, UniProt P28907); assay: Fluorescence-based NAD+ cyclase activity assay with human recombinant CD38 protein (Assay 2); type: biochemical; settings: read-out: Assay 2 Arithmetic mean IC50
T1 construct: purchased R&D System
T1 sequence (P28907 1-300): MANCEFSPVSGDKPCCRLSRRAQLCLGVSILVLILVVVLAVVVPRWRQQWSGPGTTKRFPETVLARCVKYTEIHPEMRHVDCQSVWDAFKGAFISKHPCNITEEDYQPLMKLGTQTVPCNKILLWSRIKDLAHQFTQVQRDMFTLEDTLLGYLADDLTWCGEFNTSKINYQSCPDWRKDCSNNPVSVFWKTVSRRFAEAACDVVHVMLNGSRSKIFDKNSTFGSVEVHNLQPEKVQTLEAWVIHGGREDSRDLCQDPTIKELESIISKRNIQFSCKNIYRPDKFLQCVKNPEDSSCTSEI
Experimental: This protocol was modified from the de Oliveira et al., 2018 reference, supra.
(§1) NAD+ cyclase activity of the human recombinant CD38 protein treated with test compounds was measured using a fluorescence-based assay. Briefly, recombinant human CD38 Protein (R&D System) was resuspended in 44 μl/well of Sucrose-Tris Buffer (Sucrose 0.25 M, Tris pH 7.4 40 mM) and plated in a 96-well black plate (CORNING) at a density of 125 ng/well.
(§2) Each test compound was received in a powder state and dissolved in DMSO as a 25 mM stock solution. Each test compound was serially diluted in order to generate a dose-response curve. The dilution series of each test compound in DMSO was prepared at 50 times the concentrations to be assayed. Each test compound was diluted to generate a 5-fold dilution series of 8 concentrations from 100 μM to 32 nM in order to assay 8 final concentrations ranging from 2 μM to 0.64 nM. One μl of the 50× concentration compound series was added to each well of the plate containing 125 ng of protein in Sucrose-Tris buffer.
The reaction was started adding nicotinamide guanine dinucleotide (NGD+) (Sigma Aldrich) to reach a final concentration of 150 µM. The samples were excited at 337-15 nm, and the emission of fluorescence was measured at 442-20 nm at 37° C. every minute for 1 hr in a Clariostar microplate reader (BMG LABTECH). NAD+ cyclase activity was calculated as the slope of the linear portion of the fluorescence-time curve using the MARS data analysis software (BMG LABTECH). The data were uploaded in the Collaborative Drug Design (CDD) Software, and for each compound the IC50 was calculated by the software. For each plate, the z-factor was also calculated as a plate quality using the CDD software.

[2] = target: T2, recombinant mouse CD38 Protein (Mus musculus, UniProt P56528); assay: Fluorescence-based NAD+ hydrolase activity assay with mouse recombinant CD38 protein (Assay 5); type: biochemical; settings: read-out: Assay 5 Arithmetic mean IC50
T2 construct: purchased R&D System
T2 sequence (P56528 1-304): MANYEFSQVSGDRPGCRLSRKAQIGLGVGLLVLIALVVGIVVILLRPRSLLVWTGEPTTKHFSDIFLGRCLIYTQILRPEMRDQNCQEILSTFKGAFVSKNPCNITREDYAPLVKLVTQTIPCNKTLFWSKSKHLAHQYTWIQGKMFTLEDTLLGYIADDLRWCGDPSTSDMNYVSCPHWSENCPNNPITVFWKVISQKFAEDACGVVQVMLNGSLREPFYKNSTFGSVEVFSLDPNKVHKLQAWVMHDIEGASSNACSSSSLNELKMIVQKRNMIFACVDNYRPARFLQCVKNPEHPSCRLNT
Experimental: This protocol was modified from the following references: Muller et al. (1983); Schultz et al. (2018); Matalonga et al. (2017); and de Oliveira et al. (2018), supra.
as §1, with “hydrolase” for “cyclase”, “mouse” for “human”, “96 well” for “96-well”, “2.5” for “125”
as §2, with “20” for “100”, “0.256” for “32”, “400 nM” for “2 μM”, “25.6 pM.” for “0.64 nM.”, “2.5” for “125”
Each plate had the following intra plate controls: 3 wells containing cells treated with vehicle only (DMSO), 3 wells of cells treated with the reference compounds 78c at a final concentration of 50 nM and 2 wells containing only Sucrose-Tris buffer (used as a background value).
The reaction was started adding nicotinamide 1,N^6-etheno-adenine dinucleotide (Sigma Aldrich) to reach a final concentration of 80 µM. The samples were excited at 321-15 nm and the emission of fluorescence was measured at 410-20 nm at 37° C. every minute for 1 hr in a Clariostar Microplate® reader (BMG LABTECH). NAD+ hydrolase activity was calculated as the slope of the linear portion of the fluorescence-time curve using the MARS data analysis software (BMG LABTECH). The data were uploaded in the Collaborative Drug Design (CDD) Software and for each compound the IC50 was calculated by the software. Each compound was tested in 3 independent experiments on 3 separate days to establish the reproducibility of the results. For each plate, the z-factor was also calculated as a plate quality using the CDD software.

SMILES	IC50 [1]	IC50 [2]
CNC(=O)c1ccc(NC(=O)c2cccc(-n3ccnc3)n2)cn1 [Compound 2]	1 to 50 nM	< 1 nM
NC(=O)c1ccc(NC(=O)c2cccc(-n3ccnc3)n2)cn1 [Compound 3]	1 to 50 nM	1 to 50 nM
Cc1cc(NC(=O)c2cccc(-n3ccnc3)n2)cc(C)n1 [Compound 7]	1000 to 10000 nM	< 1 nM
O=C(Nc1ccnc(F)c1)c1cccc(-n2ccnc2)n1 [Compound 8]	51 to 1000 nM	1 to 50 nM
O=C(Nc1ccc(C(F)(F)F)nc1)c1cccc(-n2ccnc2)n1 [Compound 9]	51 to 1000 nM	1 to 50 nM
Cc1cc(NC(=O)c2cccc(-n3ccnc3)n2)ccn1 [Compound 11]	51 to 1000 nM	1 to 50 nM
COc1cc(NC(=O)c2cccc(-n3ccnc3)n2)ccn1 [Compound 12]	51 to 1000 nM	1 to 50 nM
O=C(Nc1ccncc1)c1cccc(-n2ccnc2)n1 [Compound 13]	51 to 1000 nM	1 to 50 nM
Cc1ccc(NC(=O)c2cccc(-n3ccnc3)n2)cn1 [Compound 14]	1000 to 10000 nM	1 to 50 nM
CC(=O)N(C)c1ccc(NC(=O)c2cccc(-n3ccnc3)n2)cn1 [Compound 15]	1000 to 10000 nM	1 to 50 nM
CC(=O)Nc1ccc(NC(=O)c2cccc(-n3ccnc3)n2)cn1 [Compound 16]	51 to 1000 nM	1 to 50 nM
COc1ccc(NC(=O)c2cccc(-n3ccnc3)n2)cn1 [Compound 18]	1000 to 10000 nM	1 to 50 nM
O=C(Nc1cccnc1)c1cccc(-n2ccnc2)n1 [Compound 20]	1000 to 10000 nM	1 to 50 nM
O=C(Nc1ccc(F)nc1)c1cccc(-n2ccnc2)n1 [Compound 22]	1000 to 10000 nM	1 to 50 nM
O=C(Nc1ccncn1)c1cccc(-n2ccnc2)n1 [Compound 24]	1000 to 10000 nM	1 to 50 nM
COC(=O)c1ccc(NC(=O)c2cccc(-n3ccnc3)n2)cn1 [Compound 27]	51 to 1000 nM	1 to 50 nM
O=C(Nc1ccnc(C(F)(F)F)c1)c1cccc(-n2ccnc2)n1 [Compound 28]	1000 to 10000 nM	1 to 50 nM
O=C(Nc1ccnc(C(F)(F)F)c1)c1cc(OCc2ccccc2)cc(-n2ccnc2)n1 [Compound 29, 4-(benzyloxy)-6-(1H-imidazol-1-yl)-N-[2-(trifluoromethyl)pyridin-4-yl]pyridine-2-carboxamide]	51 to 1000 nM	< 1 nM
O=C(Nc1ccnc(C(F)(F)F)c1)c1cc(OCC2CCOCC2)cc(-n2ccnc2)n1 [Compound 30, 6-(1H-imidazol-1-yl)-4-((tetrahydro-2H-pyran-4-yl)methoxy)-N-(2-(trifluoromethyl)pyridin-4-yl)picolinamide]	51 to 1000 nM	< 1 nM

SMILES	IC50 [1]	IC50 [2]
COCCOc1cc(C(=O)Nc2ccnc(C(F)(F)F)c2)nc(-n2ccnc2)c1 [Compound 31, 6-(1H-imidazol-1-yl)-4-(2-methoxyethoxy)-N-(2-(trifluoromethyl)pyridin-4-yl)picolinamide]	51 to 1000 nM	< 1 nM
O=C(Nc1ccnc(C(F)(F)F)c1)c1cc(OC2CC2)cc(-n2ccnc2)n1 [Compound 32, 4-cyclopropoxy-6-(1H-imidazol-1-yl)-N-(2-(trifluoromethyl)pyridin-4-yl)picolinamide]	51 to 1000 nM	51 to 1000 nM
CN(C)CCOc1cc(C(=O)Nc2ccnc(C(F)(F)F)c2)nc(-n2ccnc2)c1 [Compound 33]	51 to 1000 nM	< 1 nM
CC1(Oc2cc(C(=O)Nc3ccnc(C(F)(F)F)c3)nc(-n3ccnc3)c2)COC1 [Compound 34, 6-(1H-imidazol-1-yl)-4-((3-methyloxetan-3-yl)oxy)-N-(2-(trifluoromethyl)pyridin-4-yl)picolinamide]	51 to 1000 nM	< 1 nM
COc1cc(C(=O)Nc2ccnc(C(F)(F)F)c2)nc(-n2ccnc2)c1 [Compound 35, 6-(1H-imidazol-1-yl)-4-methoxy-N-(2-(trifluoromethyl)pyridin-4-yl)picolinamide]	51 to 1000 nM	< 1 nM
COc1cc(C(=O)Nc2cccnc2)nc(-n2ccnc2)c1 [Compound 36]	51 to 1000 nM	1 to 50 nM
COc1cc(C(=O)Nc2ccnc(C(F)(F)F)c2)nc(-n2ccnc2)n1 [Compound 37, 2-(1H-imidazol-1-yl)-6-methoxy-N-(2-(trifluoromethyl)pyridin-4-yl)pyrimidine-4-carboxamide]	51 to 1000 nM	< 1 nM
CCOc1cc(C(=O)Nc2ccnc(C(F)(F)F)c2)nc(-n2ccnc2)n1 [Compound 38]	51 to 1000 nM	< 1 nM
COCCOc1cc(C(=O)Nc2ccnc(C(F)(F)F)c2)nc(-n2ccnc2)n1 [Compound 39, 2-(1H-imidazol-1-yl)-6-(2-methoxyethoxy)-N-(2-(trifluoromethyl)pyridin-4-yl)pyrimidine-4-carboxamide]	1 to 50 nM	< 1 nM
O=C(Nc1ccnc(C(F)(F)F)c1)c1cc(OC2CC2)nc(-n2ccnc2)n1 [Compound 40]	51 to 1000 nM	< 1 nM
Cn1cncc1-c1cccc(C(=O)Nc2cccnc2)n1 [Compound 42, 6-(1-methyl-1H-imidazol-5-yl)-N-(pyridin-3-yl)picolinamide]	1000 to 10000 nM	1 to 50 nM
Cn1cncc1-c1cccc(C(=O)Nc2ccc(C(F)(F)F)nc2)n1 [Compound 43]	51 to 1000 nM	1 to 50 nM
Cc1cc(C(=O)Nc2ccncc2)nc(-c2nccn2C)c1 [Compound 45]	51 to 1000 nM	< 1 nM
Cn1ccnc1-c1cccc(C(=O)Nc2ccc(C(F)(F)F)nc2)n1 [Compound 47]	51 to 1000 nM	1 to 50 nM
Cn1ccnc1-c1cccc(C(=O)Nc2cccnc2)n1 [Compound 48]	1000 to 10000 nM	1 to 50 nM
Cc1cc(C(=O)Nc2cccnc2)nc(-n2ccnc2)n1 [Compound 49, 2-(1H-imidazol-1-yl)-6-methyl-N-(pyridin-3-yl)pyrimidine-4-carboxamide]	1 to 50 nM	< 1 nM
Cc1cc(C(=O)Nc2ccncc2)nc(-n2ccnc2)n1 [Compound 50]	1 to 50 nM	< 1 nM
O=C(Nc1ccnc(C(F)(F)F)c1)c1cc(C2CC2)nc(-n2ccnc2)n1 [Compound 51, 6-cyclopropyl-2-(1H-imidazol-1-yl)-N-(2-(trifluoromethyl)pyridin-4-yl)pyrimidine-4-carboxamide]	51 to 1000 nM	< 1 nM
Cc1cc(C(=O)Nc2ccncc2)nc(-n2ccnc2)c1 [Compound 52, 6-(1H-imidazol-1-yl)-4-methyl-N-(pyridin-4-yl)picolinamide]	1 to 50 nM	< 1 nM
